Converted amounts (≈) assume the structure as drawn.
Legend:
Assay type in all cases: cell-based
U937 cells [1] = test: Quantitative determination of PKC activation, escape velocity dose response; conditions: five hours
Method: Optophoretic analysis was used to develop a full dose response curve for U937 cells treated with PMA. U937 cells were incubated with varying amounts of PMA dissolved in DMSO. The following concentrations of PMA were tested: 0.156 ng/ml, 0.312 ng/ml, 0.625 ng/ml, 1.25 ng/ml, 2.5 ng/ml, 5 ng/ml, and no PMA (control). […] Escape velocity measurements were then taken using a 100 mW laser having a beam diameter of 28 pixels. Table 9 reproduced below sets forth the measured escape velocities (μm/sec) for each of the various PMA concentrations.
The method described above may be used to quantitatively determine the level of PKC activation in cells in response to exposure to PKC activating compound using a moving optical gradient. The method includes the steps of first providing a series of cell samples and exposing the series of cell samples to different concentrations of the PKC activating compound. After a period of incubation from about one to several hours, the cells and the optical gradient are moved relative to each other so as to cause displacement of at least some of the cells. Next, the displacement of at least a portion of the displaced cells is measured for each of the different concentrations. […] From the dose response curve, one is able to calculate one or more numerical values that correlate to PKC potency and/or efficacy. For example, the dose response curve can be used to calculate the EC50, Hill slope, or plateau value relative to a standard compound.

U937 cells [2] = test: Escape velocity, time and concentration dependence of PMA; parameters: Escape velocity Ave.: unit not given here
Method: This experiment was conducted to test the effect of PMA concentration on the escape velocity of U937 cells. PMA concentrations of 10 ng/ml, 1 ng/ml, 100 pg/ml, 10 pg/ml and 1 pg/ml were tested. The control sample received EtOH and not PMA.
The PMA concentration was tested at three timepoints: 1 hour, 3 hours and 5 hours. At each timepoint, 300 μl of cells were removed from each flask. The cells were then spun for 5 minutes at 5000 rpm. The cells were then resuspended in […] PBS/1% BSA and […] of trypan blue.

U937 cells [3] = test: Escape velocity of PMA-treated U937 cells, time course
Method: PMA was dissolved in ethanol at a concentration of 5 mg/mL. 3 mls of U937 cells grown in RPMI 1640 media with supplements were removed from the culture flask and 1 ml was placed into each of three eppendorf tubes. Cells from the first tube were pelleted for 4 minutes at 10,000 rpm and resuspended in 250 uL PBS/1% BSA buffer for escape velocity measurements. […] These tubes were vortexed and placed in a 37° C. water bath for either one hour or six hours. At the end of the time point, the tube was removed, cells were pelleted and then resuspended as described above and escape velocity measurements taken.
The preferred method of performing cellular interrogation is through optical interrogation which includes determining the optophoretic properties of the cell(s). The optophoretic properties of the cell(s) can be determined in any number of ways. In one preferred embodiment, the escape velocity of cell(s) is used to determine the optophoretic properties. The escape velocity (measured typically in μm/sec) is defined as the minimum speed at which an interrogated cell no longer tracks the moving optical gradient.
The objective of this experiment is to compare the escape velocities of U937 cells that have been treated with the phorbol ester, phorbol 12 myristate 13-acetate (PMA), to the escape velocity of untreated U937 cells. PMA activates the Protein Kinase C pathway and may cause the cells to go into rapid cell differentiation, which may be indicated by a shift in escape velocity. The effect of PMA activation was tested at three timepoints: no activation, 1 hour of activation, and 6 hours of activation. At the end of the activation period, the cells were centrifuged for 4 minutes at 10,000 rpm. […] The cells were then centrifuged again and resuspended in buffer. The escape velocity and the cell size of cells from each tube were then calculated.

HL-60 cells = test: Fast scan analysis, differentiation of HL-60 cells; conditions: 400 ng/ml PMA, differentiation into monocytes/macrophages
Method: Fast scan analysis was also performed on HL-60 cells that were treated with PMA and DMSO. A time course evaluation of PMA treated HL-60 cells was performed with fast scan data taken at 16 hours, 24 hours, 40 hours, and 72 hours post-treatment with 400 ng/ml PMA. A control sample of HL-60 cells was also tested using EtOH as the vehicle for purposes of comparing the differentiated cells with the undifferentiated HL-60 cells. The PMA-treated and control cells were harvested and trypsinized. The samples were then resuspended in PBS/1% BSA. A set of samples was also obtained and left as pellets at 4° C. for subsequent FACS analysis.
A time course evaluation of DMSO treated HL-60 cells was performed with fast scan data taken at 16 hours, 24 hours, 40 hours, and 70 hours post-treatment with 1% DMSO. A control sample of HL-60 cells was also tested for purposes of comparing the differentiated cells with the undifferentiated HL-60 cells. The DMSO-treated and control cells were then harvested and resuspended in PBS/1% BSA. A set of samples was also obtained and left as pellets at 4° C. for subsequent FACS analysis.

## CCCCCCCCCCCCCC(=O)O[C@@H]1[C@@H](C)[C@@]2(O)[C@@H](C=C(CO)C[C@]3(O)C(=O)C(C)=C[C@@H]23)[C@@H]2C(C)(C)[C@]12OC(C)=O [PMA, phorbol 12 myristate 13-acetate]
U937 cells [1]; 1.25 ng/ml PMA
  Escape velocity Average: 17.0 μm/sec
U937 cells [1]; 2.5 ng/ml PMA
  Escape velocity Average: 17.0 μm/sec
U937 cells [1]; 5 ng/ml PMA
  Escape velocity Average: 17.3 μm/sec
U937 cells [1]; .156 ng/ml PMA
  Escape velocity Average: 15.8 μm/sec
U937 cells [1]; .312 ng/ml PMA
  Escape velocity Average: 16.0 μm/sec
U937 cells [1]; .625 ng/ml PMA
  Escape velocity Average: 16.6 μm/sec
U937 cells [1]; Homo sapiens, U-937, 5 h, escape velocity, U937 cells, read-out: EC50 value of the PMA dose response curve (FIG. 53)
  EC50: ~0.625 ng/mL (≈ 1.01 nM)
U937 cells [1]; U937 cells
  PMA concentrations at which a significant shift in escape velocity is seen: exceeding 0.625 ng/ml
U937 cells [2]; 10 pg/ml PMA, 1 Hour Activation
  Escape velocity Ave.: 14.4
U937 cells [2]; 10 pg/ml PMA, 3 Hour Activation
  Escape velocity Ave.: 14.5
U937 cells [2]; 10 pg/ml PMA, 5 Hour Activation
  Escape velocity Ave.: 14.1
U937 cells [2]; 100 pg/ml PMA, 1 Hour Activation
  Escape velocity Ave.: 14.4
U937 cells [2]; 100 pg/ml PMA, 3 Hour Activation
  Escape velocity Ave.: 15.5
U937 cells [2]; 100 pg/ml PMA, 5 Hour Activation
  Escape velocity Ave.: 16.1
U937 cells [2]; 1 ng/ml PMA, 1 Hour Activation
  Escape velocity Ave.: 14.3
U937 cells [2]; 1 ng/ml PMA, 3 Hour Activation
  Escape velocity Ave.: 15.1
U937 cells [2]; 1 ng/ml PMA, 5 Hour Activation
  Escape velocity Ave.: 16.5
U937 cells [2]; 10 ng/ml PMA, 1 Hour Activation
  Escape velocity Ave.: 14.8
U937 cells [2]; 10 ng/ml PMA, 3 Hour Activation
  Escape velocity Ave.: 15.2
U937 cells [2]; 10 ng/ml PMA, 5 Hour Activation
  Escape velocity Ave.: 16.2
U937 cells [2]; two lowest concentrations, 10 pg/ml and 1 pg/ml
  Optophoretic difference (escape velocity): no Optophoretic difference
U937 cells [3]; 0.01 μg/ml PMA, 6 and 9 hours post treatment
  distribution of escape velocities (FIG. 31): clear trend toward higher escape velocities over time
U937 cells [3]; 5 ug/mL PMA, 6 hours
  escape velocity as compared to the untreated cells: significantly higher escape velocity
U937 cells [3]; 1 hour of PMA activation
  Escape velocity Average: 15.3 μm/sec
U937 cells [3]; 6 hours of PMA activation
  Escape velocity Average: 28.0 μm/sec
HL-60 cells
  time after treatment at which Optophoretic analysis detected cellular differentiation: ≤ 16 h
